This is an account of results in ChEMBL document CHEMBL4616687, “Ligand Design for Cereblon Based Immunomodulatory Therapy” (ACS Med Chem Lett, 2020).

What is called IC50 is the midpoint of a concentration-inhibition curve. The low end stands for higher potency, the high end for lower potency.

This assay deals with Bromodomain-containing protein 4 (Homo sapiens, UniProt O60885). Put plainly: Inhibition of BRD4 bromodomain 2 (unknown origin) in HEK293 cells cotransfected with eGFP by flow cytometry based mCherry reporter gene analysis. It is filed as cell-based. For orientation: In flow cytometry, cells or beads pass a laser one at a time.

Compound `CN(c1ccccc1)c1nccc(NCC(=O)Nc2cccc3c2CN(C2CCC(=O)NC2=O)C3=O)n1` (stereo not given) had an IC50 of 3440 nM.

For `O=C1CCC(N2Cc3c(NC(=O)CNc4ccnc(N5CCN(c6cccc(C(F)(F)F)c6)CC5)n4)cccc3C2=O)C(=O)N1` (stereo not given), the IC50 came to 517 nM.

`Nc1ccnc2c(C(=O)NC3CCC(=O)NC3=O)cccc12` (stereo not given) came in with an IC50 of 7700 nM.

Regarding `Nc1ccc(C(=O)NC2CCC(=O)NC2=O)c2ncccc12` (stereo not given), the IC50 was determined as 2900 nM.

`O=C1CCC(N2Cc3c(NC(=O)CNc4ccnc(N5CCC[C@@H]5CO)n4)cccc3C2=O)C(=O)N1` (stereo not given in full) registered a half-inhibitory concentration (IC50) of 1600 nM.
